In patent publication US20250161286A1 (AEVIS BIO, INC., priority 2022, published 2025):

Key:
cereblon (CRBN) = cereblon (CRBN) (Homo sapiens, UniProt Q96SW2); experiment: In vitro CRBN binding assay (AlphaScreen, competitive inhibition of the PROTAC assay)
iNOS and COX-2 [1] = experiment: iNOS and COX-2 protein expression in LPS-stimulated BV-2 cells (immunoblotting); assay type: cell-based, mouse; conditions: BV-2 cells, 3.33, 10 or 30 μM, 1 μg/mL LPS, 24 hours
Experimental: To further confirm the oxidative stress suppression effect, the content of nitrite released due to an inflammatory response and the expression levels of iNOS, which is an enzyme that produces nitric oxide, and COX-2, which is cyclooxygenase-2, were determined in mouse microglial cells (BV-2, ATCC, Manassas, VA, USA).
(§1) To determine the content of nitrite and the protein expression levels of iNOS and COX-2, BV-2 was seeded in a 12-well plate (Corning, MD, USA) at 1.5×10^5 cells/well, and cultured using a DMEM medium (Corning, MD, USA) containing 10% fetal bovine serum (Corning, MD, USA) and 100 U/ml of penicillin/streptomycin (Corning, MD, USA) at 37° C. in a 5% CO2 incubator for one day for stabilization. […] 1 μg/mL of LPS (Sigma, USA) was added to all experimental groups excluding the non-inflammation-induced group and allowed to react at 37° C. in a 5% CO2 incubator for 24 hours.
The cells from which the cell culture solution was harvested were disrupted by adding a RIPA buffer containing a protease inhibitor cocktail (Thermo Fisher Scientific), and centrifuged at 14,000 rpm for 15 minutes at 4° C. to obtain a cell extract. Equal amounts of the cell extract were loaded, and proteins were separated through SDS-PAGE and then transferred to a PVDF membrane. […]

iNOS and COX-2 [2] = experiment: iNOS and COX-2 mRNA expression in LPS-stimulated BV-2 cells (real-time PCR); assay type: cell-based, mouse; conditions: BV-2 cells, 3.33, 10 or 30 μM, 1 μg/mL LPS, 6 hours
Experimental: as §1, with “Finally, to” for “To”, “mRNA” for “content of nitrite and the protein”, “6-well” for “12-well”, “5×10^5” for “1.5×10^5”, “6” for “24”
The drug-treated BV-2 underwent RNA prep according to the kit manual using an RNA prep kit (Monarch Total RNA Miniprep kit, NEB, UK), and the concentration was measured using a nanophotometer (NP80, Implen, Germany). […]
The expression level of each oxidative stress-associated gene in the synthesized cDNA was analyzed and compared using Real-Time PCR (StepOne™ Bioscience, USA) equipment. […] The CT value for the gene of each sample obtained through real-time PCR was normalized by the value of the internal control gene (GAPDH) of each sample, the expression level was estimated inversely by 2ΔΔCT calculation, and the resulting value of each group was quantified and expressed as a percentage relative to the LPS-only treatment group.

[3] = tested on: mouse model with Parkinson's disease induced by MPTP administration; experiment: Pillar test in MPTP-induced Parkinson's disease mouse model; assay type: in vivo; conditions: MPTP mice, oral
Experimental: To cause the disease, mice in the G2, G3, G4, and G5 groups were administered MPTP dissolved in saline via an intraperitoneal route at 2-hour intervals four times a day (20 mg/kg/time), while the G1 group received the same amount of saline.
Using a wooden pillar (length: 80 cm, diameter: 0.8˜1 cm) placed vertically on the cage floor, mice were trained to turn around from the top of the pillar in the opposite direction and descend to the bottom three times a day on days 2-3 of the test. On day 4 of the test, the same test was performed three times, and the time it took to change direction from the top and descend.

Structure (SMILES): Nc1cccc2c1C(=S)N(C1CCC(=O)NC1=O)C2=O (centres unmarked) [3-MP, 3-thiopomalidomide]
- IC50 (cereblon (CRBN)): 190 nM
- expression of oxidative stress-associated proteins (iNOS and COX-2) (iNOS and COX-2 [1]): effectively reduced
- mRNA expression of oxidative stress-associated gene (iNOS, COX-2) (iNOS and COX-2 [2]): effectively inhibit the mRNA expression of an oxidative stress-associated gene
- pillar descent time ([3]; 90 mg/kg): recovered to a level similar to that of the vehicle administration group
- pillar descent time ([3]; all doses (10, 30, 90 mg/kg/day), versus MPTP group): reduced to a statistically significant level
